Assay results taken from patent US7605280B2, “Anthraquinone and its derivatives” (Biostatus Limited, priority 1998, dated 2009).

Tested on: viable HL60 cells
Test: Flow cytometric analysis of DRAQ5 accumulation (Cytometers A and B)
Type: cell-based, human
Conditions: Cytometer B, low power 633 nm, 1 h exposure
Protocol: HL60 (human promyelocytic-leukaemia cell line) and SUD4 (human B cell lymphoma cell line) were grown as suspension cultures-in-RMPI medium with 10% foetal calf serum, 1 mM glutamine and antibiotics and incubated at 37° C. in an atmosphere of 5% CO2 in air. For flow cytometry experiments, asynchronously growing suspension cultures were diluted to 2.5-4>10^5 cells/ml at 2 h prior to drug treatment. Cell cycle-perturbed populations were obtained by treating SUD4 cells with the drug etoposide (VP-16-213) at 0.25 μM for 18h. Cells were treated with DRAQ5 and FDA as described above. Cell concentrations were determined using a Coulter counter and cell cycle distribution determined using an algorithm for the normal distibution of fluorescence intensity profiles for fluorochrome stained G1 and G2 cells.
Cells were analysed using one of four flow cytometers according to the excitation requirements. • Cytometer A: Single beam high power 647 nm krypton laser excitation: The system was a custom-built cytometer and incorporated an Innova 3000K krypton laser (Coherent Corp., Palo Alto, Calif., USA) tuned to the 647 nm line. Forward light scatter, 90° light scatter and fluorescence emissions were collected for 1×10^4 cells using the 90° light scatter parameter as the master signal. […] Forward and 90° light scatter were analysed for the identification of cell debris. […]

CN(C)CCNc1ccc(O)c2c1C(=O)c1c(O)ccc(NCCN(C)C)c1C2=O [DRAQ5]
lower end of linear dose-response of 633 nm derived DRAQ5 signal: approximately 2.5 μM
